Measurements published in patent US7423015B1, “Antihelminthic drugs as a treatment for hyperproliferative diseases” (Board of Regents, The University of Texas System, priority 2001, dated 2008).

Tests used:
VEGF = VEGF expression/secretion in H460 cell line; format: cell-based, human; details: H460, treatment period 18 hours
Protocol: FIG. 7. Percent Inhibition of VEGF Expression in H460 Cell Line After MZ Treatment. Treatment period was 18 hours; control (C); treatment (T).
One of the most encouraging findings is that MZ inhibited the neovascularization in the human xenografts tested. […] The inventors have thus shown that MZ is a potent antiangiogeneic agent. It had no effect on endothelial cell growth, instead directly targeting tumor cells in vivo. MZ may be effective in the treatment of cancer and other angiogenesis-dependent diseases.

[1] = system: H460 NSCLC cell lines resistant to taxol or vinorelbine; assay: Cell death of microtubule drug resistant cells; format: cell-based, human; details: MZ 0.5 μM, 48 h time point
Protocol: The inventors have developed H460 NSCLC cell lines that are resistant to the microtubule drugs: taxol (7 nM) or vinorelbine (9 nM). These cell lines show a marked cross resistance to each other. For example Taxol resistant cells show resistance to Vinorelbine mediated cell death. […] Thus, MZ can be effectively used for killing multi-drug resistant (MDR) cells in a clinical setting.

With `COC(=O)Nc1nc2ccc(C(=O)c3ccccc3)cc2[nH]1` [Mebendazole, Methyl 5-benzoylbenzimidazole-2-carbamate] the VEGF secretion (VEGF) was “marked down-regulation” and the cell death [1] was 40-70%.
